Laboratory results as given in patent US7504425B2 (priority 2002, dated 2009).

Target: Bacillus anthracis lethal factor (Bacillus anthracis, UniProt P15917)
Assay: biochemical

Chain of Bacillus anthracis lethal factor (P15917 34-809 limits assumed): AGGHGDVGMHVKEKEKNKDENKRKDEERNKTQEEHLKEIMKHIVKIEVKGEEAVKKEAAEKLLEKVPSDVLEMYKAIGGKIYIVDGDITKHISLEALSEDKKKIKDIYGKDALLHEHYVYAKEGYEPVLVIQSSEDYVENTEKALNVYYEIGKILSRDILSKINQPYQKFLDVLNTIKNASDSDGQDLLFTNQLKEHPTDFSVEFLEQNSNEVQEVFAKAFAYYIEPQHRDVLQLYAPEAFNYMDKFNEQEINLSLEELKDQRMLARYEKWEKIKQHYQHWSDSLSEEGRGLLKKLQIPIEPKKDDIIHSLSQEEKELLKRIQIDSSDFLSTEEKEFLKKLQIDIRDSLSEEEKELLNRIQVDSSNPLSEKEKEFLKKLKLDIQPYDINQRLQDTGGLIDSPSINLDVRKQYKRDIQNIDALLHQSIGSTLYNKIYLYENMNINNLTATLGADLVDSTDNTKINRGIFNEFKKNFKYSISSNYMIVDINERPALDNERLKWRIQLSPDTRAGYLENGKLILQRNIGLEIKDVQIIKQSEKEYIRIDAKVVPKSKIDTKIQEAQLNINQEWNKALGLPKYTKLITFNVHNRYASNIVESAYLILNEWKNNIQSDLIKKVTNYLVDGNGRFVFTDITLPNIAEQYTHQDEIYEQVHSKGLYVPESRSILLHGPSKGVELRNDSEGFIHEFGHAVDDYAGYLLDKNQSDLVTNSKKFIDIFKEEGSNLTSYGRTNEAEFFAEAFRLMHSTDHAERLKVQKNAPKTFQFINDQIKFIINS

Cc1cc(S(=O)(=O)N[C@@H](C(=O)NO)C2CCOCC2)ccc1F
IC50: 0.06 µM
